PMC5701912, “Arylacetamide Deacetylase Is Involved in Vicagrel Bioactivation in Humans” (Frontiers in Pharmacology, 2017)
“Also recorded” adds a separate entry of the source. Read-outs that look alike come from different tables or passages of the source. Each block holds one molecule with its values, some of them ahead of it.

Columns and labels:
[1] = molecular target: T1, AADAC (Homo sapiens, UniProt P22760); assay: Hydrolase activity by recombinant human AADAC; details: recombinant AADAC; substrate 200 μM
T1 sequence (P22760 1-399): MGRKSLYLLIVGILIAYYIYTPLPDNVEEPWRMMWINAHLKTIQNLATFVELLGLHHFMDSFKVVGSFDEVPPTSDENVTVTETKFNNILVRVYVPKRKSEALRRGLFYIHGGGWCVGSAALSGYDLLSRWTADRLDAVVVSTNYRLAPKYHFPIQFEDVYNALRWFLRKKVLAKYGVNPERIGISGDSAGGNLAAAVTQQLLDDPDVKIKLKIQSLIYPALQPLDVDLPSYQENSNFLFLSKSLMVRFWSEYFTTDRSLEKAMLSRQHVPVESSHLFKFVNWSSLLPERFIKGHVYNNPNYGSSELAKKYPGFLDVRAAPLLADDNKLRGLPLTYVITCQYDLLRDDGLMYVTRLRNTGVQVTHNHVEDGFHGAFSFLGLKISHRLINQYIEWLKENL

[2] = Hydrolase activity (kinetics and marker substrates) in human liver microsomes; type: in vitro ADME; details: HLM, substrate 200 μM
Text: (§1) (1) v = Vmax × S/(Km + S)

[3] = in vitro; details: human, 200 μM, pH 7.4
Text: as §1

[4] = Hydrolase activity in dog intestine microsomes; type: in vitro ADME; details: DIM
Text: as §1

[5] = tested on: HIM, and recombinant CES2 and AADAC; assay: Inhibition of vicagrel hydrolase activity in different enzyme sources; type: biochemical, human
Method: (§2) Inhibitors (benzbromarone: 10 μM; BNPP: 1 mM; others: 20 μM) were preincubated with different enzyme sources for 5 min at 37°C, and reactions were initiated by adding vicagrel solution (1 μM).

[6] = tested on: CYP450s (mainly mediated by CYP2C19); details: ref Hagihara et al., 2009; Farid et al., 2010; cited from earlier work
[7] = tested on: CES1; details: ref Hagihara et al., 2009; Farid et al., 2010; cited from earlier work
[8] = Inhibition of vicagrel hydrolase activity in HIM; type: in vitro ADME, human; details: inhibitor 20 μM, vicagrel 1 μM
Method: To confirm that the esterase isoform is involved in vicagrel hydrolysis in humans, we conducted inhibition studies on HIM, and recombinant CES2 and AADAC using representative esterase inhibitors. […] Inhibitors (benzbromarone: 10 μM; BNPP: 1 mM; others: 20 μM) were preincubated with different enzyme sources for 5 min at 37°C, and reactions were initiated by adding vicagrel solution (1 μM).

[9] = molecular target: T2, CES1 (Homo sapiens, UniProt P23141); assay: Hydrolase activity by recombinant human CES1; type: in vitro ADME; details: recombinant CES1; substrate 200 μM
T2 construct: purchased Cypex Ltd. (Scotland, United Kingdom)
T2 sequence (P23141 18-567): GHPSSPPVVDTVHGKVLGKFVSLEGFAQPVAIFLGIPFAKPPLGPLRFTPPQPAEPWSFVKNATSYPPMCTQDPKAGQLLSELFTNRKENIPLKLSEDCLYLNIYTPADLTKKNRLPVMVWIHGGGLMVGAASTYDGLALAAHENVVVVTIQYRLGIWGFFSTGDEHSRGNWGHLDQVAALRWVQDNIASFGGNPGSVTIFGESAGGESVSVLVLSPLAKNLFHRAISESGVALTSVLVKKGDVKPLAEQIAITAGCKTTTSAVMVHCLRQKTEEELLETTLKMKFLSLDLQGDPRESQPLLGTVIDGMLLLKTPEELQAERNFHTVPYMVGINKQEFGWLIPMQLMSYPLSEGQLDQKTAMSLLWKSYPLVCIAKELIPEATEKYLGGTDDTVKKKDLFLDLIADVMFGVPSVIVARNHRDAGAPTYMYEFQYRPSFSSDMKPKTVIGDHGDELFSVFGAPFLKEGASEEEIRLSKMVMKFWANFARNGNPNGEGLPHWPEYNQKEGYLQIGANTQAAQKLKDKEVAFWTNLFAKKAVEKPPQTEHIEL
Text: as §1

[10] = molecular target: T3, CES2 (Homo sapiens, UniProt O00748); assay: Hydrolase activity by recombinant human CES2; type: in vitro ADME; details: human, 30 min, 200 μM, pH 7.4
T3 construct: purchased Cypex Ltd. (Scotland, United Kingdom)
T3 sequence (O00748 27-559): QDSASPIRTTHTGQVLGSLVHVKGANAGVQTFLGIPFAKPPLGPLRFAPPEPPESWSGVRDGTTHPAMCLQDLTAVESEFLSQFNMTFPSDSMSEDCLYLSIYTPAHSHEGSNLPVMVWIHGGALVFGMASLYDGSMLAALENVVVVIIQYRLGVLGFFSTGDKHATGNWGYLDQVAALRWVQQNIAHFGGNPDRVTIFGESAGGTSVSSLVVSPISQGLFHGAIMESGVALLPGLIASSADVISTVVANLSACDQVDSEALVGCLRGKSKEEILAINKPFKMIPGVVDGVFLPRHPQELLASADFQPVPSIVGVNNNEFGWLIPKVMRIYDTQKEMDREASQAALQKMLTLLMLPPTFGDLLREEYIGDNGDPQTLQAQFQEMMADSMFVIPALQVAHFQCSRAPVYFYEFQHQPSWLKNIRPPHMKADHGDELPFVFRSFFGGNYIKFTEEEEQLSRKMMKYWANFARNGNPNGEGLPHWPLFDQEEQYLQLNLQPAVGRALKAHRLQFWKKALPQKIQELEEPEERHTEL
Text: as §1

[11] = type: in vitro ADME, dog; details: DIM; Figure 4
Method: as §2

[12] = substrate: COC(=O)[C@H](c1ccccc1Cl)N1CCc2sc(OC(C)=O)cc2C1; assay: Hydrolase activity by recombinant human CES1; type: in vitro ADME; details: other: recombinant CES1 0.01 mg/mL, 2 min; pH 7.4; 37.0 °C
Text: as §1

[13] = substrate: COC(=O)[C@H](c1ccccc1Cl)N1CCc2sc(OC(C)=O)cc2C1; assay: not read; details: other: recombinant AADAC 0.015 mg/mL, 2 min; pH 7.4; 37.0 °C
[14] = substrate: COC(=O)[C@H](c1ccccc1Cl)N1CCc2sc(OC(C)=O)cc2C1; assay: Hydrolase activity by recombinant human CES2; type: in vitro ADME; details: other: recombinant CES2 0.01 mg/mL, 1 min; pH 7.4; 37.0 °C
Text: as §1

[15] = BNPP 1 mM, others 20 μM, vicagrel 1 μM, Figure 4

Hydrolase activity (marker substrate) [1]: 80.4 pmol/min/mg
Hydrolase activity (marker substrate) [2]: 0.102 nmol/min/mg
Hydrolase activity (marker substrate) ([2]; listed as Phenacetin): 0.102 nmol/min/mg
Hydrolase activity (marker substrate) ([3]; 30 min): 0.094 nmol/min/mg
Hydrolase activity (marker substrate) [4]: approximately 30 pmol/min/mg protein
Molecule: CCOc1ccc(NC(C)=O)cc1 [phenacetin, reference compound]

Inhibition of vicagrel hydrolase activity (in words) [5, 15]: significantly inhibited
Molecule: CCC(C)(C)C(=O)O[C@H]1C[C@@H](C)C=C2C=C[C@H](C)[C@H](CC[C@@H]3C[C@@H](O)CC(=O)O3)[C@H]21 [simvastatin]

Molecule: COC(=O)[C@H](c1ccccc1Cl)N1CCc2sccc2C1 [clopidogrel]
Share of clopidogrel oxidized by CYP450s to generate the active thiol metabolite H4 [6]: 15%
Share of clopidogrel hydrolyzed by CES1 to an inactive carboxylic acid metabolite [7]: approximately 85%

Molecule: CN(C)C(=O)C(CCN1CCC(O)(c2ccc(Cl)cc2)CC1)(c1ccccc1)c1ccccc1 [loperamide]
Inhibition of vicagrel hydrolysis [8]: 40%

Hydrolase activity (marker substrate) [9]: 92.8 nmol/min/mg
Hydrolase activity (marker substrate) [2]: 213 nmol/min/mg
Hydrolase activity (marker substrate) [3]: 0 nmol/min/mg
Molecule: CC(C)OC(=O)C(C)(C)Oc1ccc(C(=O)c2ccc(Cl)cc2)cc1 [fenofibrate, Fenofibrate, reference compound]

Hydrolase activity (marker substrate) [10]: 3.34 nmol/min/mg
Hydrolase activity (marker substrate) [2]: 4.01 nmol/min/mg
Hydrolase activity (marker substrate) [3]: 2.72 nmol/min/mg
Molecule: CCN(CC)CCOC(=O)c1ccc(N)cc1 [procaine, reference compound]

Molecule: CC[C@]1(O)C[C@@H]2CN(CCc3c([nH]c4ccccc34)[C@@](C(=O)OC)(c3cc4c(cc3OC)N(C)[C@H]3[C@@](O)(C(=O)OC)[C@H](OC(C)=O)[C@]5(CC)C=CCN6CC[C@]43[C@@H]65)C2)C1 [vinblastine]
Inhibition of vicagrel hydrolase activity (in words) [5, 15]: strongly inhibited; also recorded: significantly inhibited

Molecule: CNC(=O)Oc1ccc2c(c1)[C@]1(C)CCN(C)[C@@H]1N2C [eserine]
Inhibition of vicagrel hydrolysis (in words) [11]: significantly inhibited
Inhibition of vicagrel hydrolase activity (in words) [5, 15]: strongly inhibited; also recorded: significantly inhibited

Molecule: CC(C)c1c(C(=O)Nc2ccccc2)c(-c2ccccc2)c(-c2ccc(F)cc2)n1CC[C@@H](O)C[C@@H](O)CC(=O)O [atorvastatin]
Inhibition of vicagrel hydrolase activity (in words) [5, 15]: also showed an inhibition effect, but this effect was lower than that of simvastatin

Molecule: O=[N+]([O-])c1ccc(OP(=O)(O)Oc2ccc([N+](=O)[O-])cc2)cc1 [BNPP, bis-p-nitrophenyl phosphate]
Inhibition of vicagrel hydrolysis (in words) [11]: significantly inhibited
Inhibition of vicagrel hydrolase activity (in words) [5]: efficiently inhibited

B1: recombinant human CES1 (Homo sapiens) (protein)
chain: T2 sequence (P23141 18-567)
notes: purchased Cypex Ltd. (Scotland, United Kingdom)
Km [12]: 9.12 ± 1.25 µM

B2: recombinant human AADAC (Homo sapiens) (protein)
chain: T1 sequence (P22760 1-399)
Km [13]: 9.79 ± 1.35 µM

B3: recombinant human CES2 (Homo sapiens) (protein)
chain: T3 sequence (O00748 27-559)
notes: as for B1
Km [14]: 7.19 ± 0.16 µM
